We go through 33 compounds from patent publication US11203600B2 (Denali Therapeutics Inc., priority 2017, dated 2021).

In this assay the target is GST-hRIPK1 (8-327) (Homo sapiens (Human), UniProt Q13546). Put plainly: Fluorescent Polarization Binding (FP Binding) assay, RIPK1. The conditions noted are these: mean of at least two independent experiments. The method, then: Fluorescent Polarization Binding (FP Binding) assay (Berger S. B. et al. (2015) Cell Death Discovery, 1: 15009; Maki J. L. et al. (2012) Anal Biochem., 427(2): 164-174) was performed in polystyrene low volume 384-well black plate, at RT in a final volume of 10.1 μl/well using 10 nM of GST-hRIPK1 (8-327) enzyme and 5 nM of fluorescent-labeled ligand (14-(2-{[3-({2-{[4-(cyanomethyl)phenyl]amino]-6-[(5-cyclopropyl-1H-pyrazol-3-yl)amino]-4-pyrimidinyl}amino) propyl}amino}-2-oxoethyl)-16,16,18,18-tetramethyl-6,7,7a,8a,9,10,16,18-octahydrobenzo [2″,3″]indolizino[8″,7″:5′,6′]pyrano [3′,2′:3,4]pyrido[1,2-a]indo1-5-ium-2-sulfonate.
Test compounds were serially diluted in DMSO at 100 fold final concentrations in the assay (1% DMSO final). In each well of a 384-well Plate were dispensed 0.1 μL of compound solution (or DMSO for controls) followed by 5 μL of GST-hRIPK1 (8-327) at twice the final concentrations in assay buffer (50 mM HEPES pH 7.5, 10 mM NaCl, 50 mM MgCl2, 0.02% CHAPS, 0.5 mM DTT and 0.01% Pluronic F127). For negative control the enzyme addition was replaced by assay buffer only.
After addition of 5 μL of fluorescentlabeled ligand at twice the final concentrations in assay buffer, the plate was incubated at RT for […]. At the end, the binding was measured as FP value with the Envision (PerkinElmer) plate reader using filter for an excitation λ=531 nm FP and an emission λ=595 nm FP (S & P-pol). GST-hRIPK1 (8-327) enzyme was produced via Baculovirus expression.
Test compound inhibition was expressed as percent inhibition of internal assay controls. For concentration response curves, normalized data is fit and IC50 determined using XL-fit (IDBS) for Excel. The IC50 values were averaged to determine a mean value, for a minimum of two independent experiments. Results are shown in Table 2 (RIPK1 IC50) values: +++=0.1 nM<IC50<100 nM; ++=100 nM<IC50<1 μM; +=1 μM<IC50).

Where [1] appears, read: 10 nM GST-hRIPK1 (8-327), 5 nM fluorescent-labeled ligand, RT, 30 min.

Chain of GST-hRIPK1 (8-327) (Q13546 8-327): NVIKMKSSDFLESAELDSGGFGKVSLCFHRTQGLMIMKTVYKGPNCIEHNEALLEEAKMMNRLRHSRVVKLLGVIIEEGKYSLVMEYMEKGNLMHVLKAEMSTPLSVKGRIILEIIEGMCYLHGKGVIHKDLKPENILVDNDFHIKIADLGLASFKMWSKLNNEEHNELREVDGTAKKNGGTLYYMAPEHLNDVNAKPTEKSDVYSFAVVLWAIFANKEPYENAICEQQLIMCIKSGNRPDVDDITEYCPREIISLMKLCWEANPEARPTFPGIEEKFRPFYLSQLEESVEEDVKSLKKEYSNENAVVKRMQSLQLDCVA

Usually IC50 stands for the point on the concentration scale where inhibition reaches its midpoint. Lower therefore signals higher potency. `N#Cc1cncc2c1OCCN(C(=O)C1CCN(c3ccnc4c(F)cnn34)CC1F)C2` (single isomer, unassigned) [Example 304, 4-[3-Fluoro-1-(3-fluoropyrazolo[1,5-a]pyrimidin-7-yl)piperidine-4-carbonyl]-3,5-dihydro-2H-pyrido[3,4-f][1,4]oxazepine-9-carbonitrile]: where the note is “GST-hRIPK1 (8-327)”, the IC50 was 0.1 to 100 nM.
Compound `N#Cc1cncc2c1OCCN(C(=O)C1CCN(c3ncc(F)cn3)CC1F)C2` (single isomer, unassigned) [Example 305, 4-[3-Fluoro-1-(5-fluoropyrimidin-2-yl)piperidine-4-carbonyl]-3,5-dihydro-2H-pyrido[3,4-f][1,4]oxazepine-9-carbonitrile] registered an IC50 (GST-hRIPK1 (8-327)) of 100 to 1000 nM.
Still for that read-out and setting: in the case of `N#Cc1cncc2c1OCCN(C(=O)C1CCN(c3ncc(F)cn3)CC1F)C2` (single isomer, unassigned) [Example 306, 4-[3-Fluoro-1-(5-fluoropyrimidin-2-yl)piperidine-4-carbonyl]-3,5-dihydro-2H-pyrido[3,4-f][1,4]oxazepine-9-carbonitrile] it was 0.1 to 100 nM; in that of `N#Cc1cncc2c1OCCN(C(=O)C1CCN(c3ncc(F)cn3)CC1(F)F)C2` (single isomer, unassigned) [Example 307, 4-[3,3-Difluoro-1-(5-fluoropyrimidin-2-yl)piperidine-4-carbonyl]-3,5-dihydro-2H-pyrido[3,4-f][1,4]oxazepine-9-carbonitrile], 100 to 1000 nM; in that of `N#Cc1cncc2c1OCCN(C(=O)C1CCN(c3ncc(F)cn3)CC1(F)F)C2` (single isomer, unassigned) [Example 308, 4-[3,3-Difluoro-1-(5-fluoropyrimidin-2-yl)piperidine-4-carbonyl]-3,5-dihydro-2H-pyrido[3,4-f][1,4]oxazepine-9-carbonitrile], 0.1 to 100 nM.
As to `O=C(C1CC(F)(F)C1)N1CCOc2ccccc2C1` [Example 1, (3,3-difluorocyclobutyl)(2,3-dihydrobenzo[f][1,4]oxazepin-4(5H)-yl)methanone], under setting [1], the IC50 is over 1000 nM.
In the case of `CC(C)(C(=O)N1CCOc2c(C#N)ccc(F)c2C1)C(F)F` [Example 2, 4-(3,3-difluoro-2,2-dimethyl-propanoyl)-6-fluoro-3,5-dihydro-2H-1,4-benzoxazepine-9-carbonitrile], the IC50 under setting [1] was 0.1 to 100 nM.
Regarding `CC(C)(C)C(=O)N1CCCc2ccccc2C1` [Example 3, 2,2-dimethyl-1-(1,3,4,5-tetrahydro-2-benzazepin-2-yl)propan-1-one], under setting [1], the IC50 fell in the range of 100 to 1000 nM.
The same measure, in the same setting: the figure for `CCC(C)(C)C(=O)N1CCCc2ccccc2C1` [Example 4, 2,2-dimethyl-1-(1,3,4,5-tetrahydro-2-benzazepin-2-yl)butan-1-one] is 100 to 1000 nM; for `CC(C)(C(=O)N1CCCc2ccccc2C1)C(F)F` [Example 5, 3,3-difluoro-2,2-dimethyl-1-(1,3,4,5-tetrahydro-2-benzazepin-2-yl)propan-1-one] it is 100 to 1000 nM.
Still for that read-out and setting: in the case of `CCC(C)(C)C(=O)N1CCOc2ccccc2C1` [Example 6, 1-(3,5-dihydro-2H-1,4-benzoxazepin-4-yl)-2,2-dimethyl-butan-1-one] it was 0.1 to 100 nM.
Same read-out and setting: the figure for `CC(C)(C(=O)N1CCOc2ccccc2C1)C(F)F` [Example 7, 1-(3,5-dihydro-2H-1,4-benzoxazepin-4-yl)-3,3-difluoro-2,2-dimethyl-propan-1-one] is 0.1 to 100 nM; for `O=C(C1CCN(c2ncc(F)cn2)CC1)N1CCOc2ccccc2C1` [Example 8, 3,5-dihydro-2H-1,4-benzoxazepin-4-yl-[1-(5-fluoropyrimidin-2-yl)-4-piperidyl]methanone] it is 0.1 to 100 nM; for `CC1(C(=O)N2CCOc3ccccc3C2)CCN(c2ncc(F)cn2)CC1` [Example 9, 3,5-dihydro-2H-1,4-benzoxazepin-4-yl-[1-(5-fluoropyrimidin-2-yl)-4-methyl-4-piperidyl]methanone] it is 0.1 to 100 nM.
`CC(C)(C(=O)N1CCOc2ccc(Cl)cc2C1)C(F)F` [Example 10, 1-(7-chloro-2,3-dihydrobenzo[f][1,4]oxazepin-4(5H)-yl)-3,3-difluoro-2,2-dimethylpropan-1-one] had an IC50 under setting [1] of 100 to 1000 nM.
Consider `Cc1ccc2c(c1)CN(C(=O)C(C)(C)C(F)F)CCO2` [Example 11, 3,3-difluoro-2,2-dimethyl-1-(7-methyl-2,3-dihydrobenzo[f][1,4]oxazepin-4(5H)-yl)propan-1-one], for which the IC50 under setting [1] lay within 100 to 1000 nM.
Consider `COc1ccc2c(c1)OCCN(C(=O)C(C)(C)C(F)F)C2` [Example 12, 3,3-difluoro-1-(8-methoxy-3,5-dihydro-2H-14-benzoxazepin-4-yl)-2,2-dimethyl-propan-1-one], for which the IC50 under setting [1] fell in the range of 100 to 1000 nM.
On the same count and under the same terms, in the case of `CC(C)(C(=O)N1CCOc2c(F)cccc2C1)C(F)F` [Example 13, 3,3-difluoro-1-(9-fluoro-2,3-dihydrobenzo[f][1,4]oxazepin-4(5H)-yl)-2,2-dimethylpropan-1-one] it was 0.1 to 100 nM; in that of `CC(C)(CC#N)C(=O)N1CCOc2c(F)cccc2C1` [Example 14, 4-(9-fluoro-3,5-dihydro-2H-1,4-benzoxazepin-4-yl)-3,3-dimethyl-4-oxo-butanenitrile], 0.1 to 100 nM.
Still for that read-out and setting: the figure for `CC(C)(C(=O)N1CCOc2c(F)cccc2C1)C1CC1` [Example 15, 2-cyclopropyl-1-(9-fluoro-3,5-dihydro-2H-1,4-benzoxazepin-4-yl)-2-methyl-propan-1-one] is 0.1 to 100 nM; for `CC(C)(CC(F)F)C(=O)N1CCOc2c(F)cccc2C1` [Example 16, 4,4-difluoro-1-(9-fluoro-3,5-dihydro-2H-1,4-benzoxazepin-4-yl)-2,2-dimethyl-butan-1-one] it is 0.1 to 100 nM; for `CC(C(=O)N1CCOc2c(F)cccc2C1)C(F)(F)F` (stereo not drawn) [Example 17, 3,3,3-trifluoro-1-(9-fluoro-3,5-dihydro-2H-1,4-benzoxazepin-4-yl)-2-methyl-propan-1-one] it is over 1000 nM.
For the compound `CC(F)(F)C(C)(C)C(=O)N1CCOc2c(F)cccc2C1` [Example 18, 3,3-difluoro-1-(9-fluoro-3,5-dihydro-2H-1,4-benzoxazepin-4-yl)-2,2-dimethyl-butan-1-one], the IC50 under setting [1] lay within 0.1 to 100 nM.
The same measure, in the same setting: in the case of `O=C(C(C1CC1)C1CC1)N1CCOc2c(F)cccc2C1` [Example 19, 2,2-dicyclopropyl-1-(9-fluoro-3,5-dihydro-2H-1,4-benzoxazepin-4-yl)ethanone] it was over 1000 nM.
Under setting [1], `CC(C)(C(=O)N1CCOc2cccc(F)c2C1)C(F)F` [Example 20, 3,3-difluoro-1-(6-fluoro-2,3-dihydrobenzo[f][1,4]oxazepin-4(5H)-yl)-2,2-dimethylpropan-1-one] came in with an IC50 of 0.1 to 100 nM.
Compound `CC1COc2ccccc2CN1C(=O)C(C)(C)C(F)F` (stereo not drawn) [Example 21, 3,3-difluoro-2,2-dimethyl-1-(3-methyl-2,3-dihydrobenzo[f][1,4]oxazepin-4(5H)-yl)propan-1-one] showed a 50% inhibitory concentration (IC50) under setting [1] of 0.1 to 100 nM.
`CC(C)(C(=O)N1CCOc2c(C#N)cc(F)cc2C1)C(F)F` [Example 22, 4-(3,3-difluoro-2,2-dimethyl-propanoyl)-7-fluoro-3,5-dihydro-2H-1,4-benzoxazepine-9-carbonitrile] gave an IC50 under setting [1] of 0.1 to 100 nM.
The compound `CC(C)(C(=O)N1CCOc2c(C#N)cccc2C1)C(F)F` [Example 23, 4-(3,3-difluoro-2,2-dimethyl-propanoyl)-3,5-dihydro-2H-1,4-benzoxazepine-9-carbonitrile] had an IC50 under setting [1] of 0.1 to 100 nM.
On the same count and under the same terms, the figure for `CC1(C(=O)N2CCOc3c(C#N)cccc3C2)CCN(c2ncc(F)cn2)CC1` [Example 24, 4-[1-(5-fluoropyrimidin-2-yl)-4-methyl-piperidine-4-carbonyl]-3,5-dihydro-2H-1,4-benzoxazepine-9-carbonitrile] is 0.1 to 100 nM.
On to `CC(C)(CC#N)C(=O)N1CCOc2c(C#N)cccc2C1` [Example 25, 4-(3-cyano-2,2-dimethyl-propanoyl)-3,5-dihydro-2H-1,4-benzoxazepine-9-carbonitrile], for which the IC50 under setting [1] was 0.1 to 100 nM.
`CC(C)(C(=O)N1CCOc2c(C#N)cccc2C1)C1CC1` [Example 26, 4-(2-cyclopropyl-2-methyl-propanoyl)-3,5-dihydro-2H-1,4-benzoxazepine-9-carbonitrile] displayed an IC50 under setting [1] of 0.1 to 100 nM.
As to `CC(C)(C(=O)N1CCOc2cccc(C#N)c2C1)C(F)F` [Example 27, 4-(3,3-difluoro-2,2-dimethyl-propanoyl)-3,5-dihydro-2H-1,4-benzoxazepine-6-carbonitrile], the IC50 under setting [1] was over 1000 nM.
The compound `CC(C)(C(=O)N1CCOc2cc(C#N)ccc2C1)C(F)F` [Example 28, 4-(3,3-difluoro-2,2-dimethyl-propanoyl)-3,5-dihydro-2H-1,4-benzoxazepine-8-carbonitrile] returned an IC50 under setting [1] of 100 to 1000 nM.
